Marks after values point to notes of the source that are not given here.
How the values were obtained:
[1] = tested on: retinal ganglion cells and optic nerve axons; test: optic nerve transection: retinal ganglion cell survival, optic nerve axon preservation and myelination 90 days after transection; assay type: in vivo, rat; conditions: for RGC Counts: mean density + SEM of Fluoro-gold labeled RGC in 400 μm × 400 μm gridfields; for ON Axon density: RT97 labeled axons in 200 μm × 200 μm region, mean + SEM; for Proximal optic nerve myelin basic protein Density: % areal coverage of optic nerve cross section, ± SEM; for increased ON axon density: adjusted for optic nerve diameter; for ON axon Count: calculated by multiplying axonal density by ON area; for Distal optic nerve myelin basic protein Density (myelin level): cross sectional area multiplied by myelin density
Description: All eyes and optic nerves stumps were removed.

[2] = tested on: retinal ganglion cells and optic nerve; test: retinal ischemia: degeneration of retinal ganglion cells, optic nerve axons and myelin; assay type: in vivo, rat
Description: Retinal ganglion cells were retrogradely labeled in adult rats by bilateral injection of fluorogold in their lateral geniculate nuclei. Labeled ganglion cells in the normal rat retina appear as white profiles against the dark background (FIG. 1A). Complete retinal ischemia was produced by infusing normal saline solution into the retinal vitreous cavity of each eye until the intraocular pressure exceeded arterial blood pressure. 28 days after the ischemic episode extensive degeneration of retinal ganglion cell was evidenced by massive reduction in the density of fluorogold labeled cells (FIG. 1B).

[3] = tested on: retina; test: streptozotocin induced diabetes: retinal neovascularization and neuronal loss; assay type: in vivo; conditions: 28 day treatment beginning 8 weeks after onset of streptozotocin induced diabetes
[4] = tested on: retinal ganglion cell axons; test: protection of retinal ganglion cell axons from degeneration 14 days after optic nerve transection (RT97); assay type: in vivo; conditions: ± SEM
Description: Efficacy of represetative compounds from different immunophilin ligand series in protecting retinal ganglion cell axons from degeneration following optic nerve transection set forth in Table 9.
Efficacy of representative compounds from different immunophilin ligand series in protecting retinal ganglion cell axons from degeneration following optic nerve transection

[5] = Clearance; assay type: in vitro ADME; conditions: Table 9 comments
[6] = tested on: streptozotocin-induced diabetic rat; test: sensory neuropathy in streptozotocin-induced diabetes: hot plate and tail flick; assay type: in vivo; conditions: lesioned animals treated for 6 weeks at 10 mg/kg s.c., treatment started six weeks after streptozotocin
Experimental: The procedure involved using Male Wistar rats which were given a single injection of streptozotocin (65 mg/kg i.v.). Blood glucose levels were determined weekly for the first three weeks and on the last week of the experiment. Animals were evaluated weekly for signs of sensory neuropathy using the conventional hot plate and tail flick apparatus test procedures.

[7] = tested on: aged mice; test: Morris watermaze spatial learning and memory in aged rodents; assay type: in vivo, mouse; conditions: aged impaired C57BL/6N-Nia mice, 10 mg/kg daily, retention testing after 3 weeks of dosing
Description: The Morris watermaze is widely used for assessing spatial memory formation and retention in experimental animals. The test depends on the animal's ability to utilize spatial visual information in order to locate a submerged escape platform in a water tank. It is important that the tank itself be as devoid of specific visual features as possible-thus, it is always circular in shape, the sides are kept smooth and in uniform dull colors, and the water is rendered opaque with nontoxic watercolor pigment or powdered milk. This is to ensure that the animal navigates only by the use of more distant visual cues, or by the use of intra-maze cues specifically provided by the experimenter. The tank is filled to a level which forces the animal to swim actively. Normal mice and rats react […] to the swimming part of the test and will climb onto, and remain on, an escape platform from which they are removed to a heated resting cage. If the platform is visible (i.e. above the surface), animals placed in the tank will quickly learn to home in on the platform and climb out onto it. […] Swim Distances (cm) were analyzed in a 7×5 ANOVA including Groups and Blocks (1-5) as factors in the analysis, treating Blocks as a repeated measure.

[8] = ONT/14 days GPI 1046, 90 days after transection
[9] = ONT/28 days GPI 1046, 90 days after transection
[10] = 28 days after 1 hour retinal ischemic episode, toluidine blue staining

## CCC(C)(C)C(=O)C(=O)N1CCC[C@H]1C(=O)OCCCc1cccnc1 [GPI 1046, 3-(3-pyridyl)-1-propyl (2s)-1-(3,3-dimethyl-1,2-dioxopentyl)-2-pyrrolidinecarboxylate]
[1]; Example 16: 10 mg/kg/day s.c. for 28 days, 90 days after transection, RT97
  preservation of axons of protected neurons in the proximal stump: preserved the axons of virtually all protected neurons
[1]; Example 16: 10 mg/kg/day s.c. for 28 days, sacrificed 90 days after transection
  ganglion cell population spared (perikaryal neuroprotection): 25%
[1]; GPI 1046 for the first 14 days after optic nerve transection, proximal stump, 90 days
  protection of optic nerve axons: 5.3%
[1]; ONT/14 days GPI 1046, 10 mg/kg/day sc, 90 days after transection
  RGC Counts: small but not significant increase
[1]; [8]
  % RGCs Rescued: 5.3%
  % surviving RGCs with ON axons: 33.6%
  Distal optic nerve stump shrinkage (cross sectional area vs sham): did not protect against shrinkage of the distal stump
  ON head area (% sham): 76% sham
  Spared RGC population: 20,275
  ON Axon density: 569 ± 23
[1]; ONT/14 days GPI 1046
  Proximal optic nerve myelin basic protein Density: 1.6 ± 3.0 SEM % recovery
  increased ON axon density: 1.5×
  ON axon Count: 6820
  Distal optic nerve myelin basic protein Density (myelin level): slightly increase the density of myelin
[1]; ONT/28 days GPI 1046, 10 mg/kg/day sc, 90 days after transection
  RGC Counts: 67.9 + 5.8*
[1]; [9]
  % surviving RGCs with ON axons: 81.4%
  Distal optic nerve stump shrinkage (cross sectional area vs sham): prevented cross sectional shrinkage of the distal stump
  ON head area (% sham): 95%* % sham
  Spared RGC population: 28,096*
  ON Axon density: significant increase in the density of large, and particularly medium and small caliber optic nerve axons
[1]; ONT/28 days GPI 1046
  Proximal optic nerve myelin basic protein Density: 70 ± 6.3 SEM % recovery
  increased ON axon density: 5.0×
  ON axon Count: 22,861*
  Distal optic nerve myelin basic protein Density (myelin level): 99% myelin % myelin preservation
[2]; 10 mg/kg s.c. 1 hour prior to ischemic episode and 10 mg/kg/day for next four days, 28 days after ischemia
  protection of retinal ganglion cells (density of fluorogold labeled cells): noticeable protection of a large proportion of the vulnerable ganglion cell population
[2]; [10]
  density of degenerating myelin figures: dramatically decreased the density of degenerating myelin figures
  protection of optic nerve axons from ischemic degeneration: protected the majority of optic nerve axons from degeneration
[3]
  neovascularization in the PR, ONL, OPL and INL: reduced neovascularization
  neuronal loss in the ONL: did not appear to protect against neuronal loss in the ONL
[3]; vs streptozotocin/vehicle
  loss of neurons in the INL and GCL: appeared to decrease the loss of neurons in both the INL and GCL
[4]
  RT 97 + RGC axon density 14 days after ON transaction (36 ON axons rescued): 60.5% ±3.9 SEM
[5]
  Clearance: 63.8 µL/min
[6]
  latency in hot plate and tail flick tests: improvement in latency
[7]
  spatial memory performance (swim distance), retention testing: significantly enhanced spatial memory performance

— patent US6384056B1, “Heterocyclic thioesters or ketones for vision and memory disorders” (GPI NIL Holdings, Inc., priority 1998, dated 2002)
